What was measured:
Format in all cases: in vivo
Oryza sativa (Rice) = experiment: General postemergence herbicidal activity (Example 13); settings: post-emergent spray, 70 g ai/ha, 14 DAA; crop (rice)
Method: (§1) Seeds or nutlets of the desired test plant species were planted in Sun Gro Metro-Mix® 360 planting mixture, which typically has a pH of 6.0 to 6.8 and an organic matter content of about 30 percent, in plastic pots with a surface area of 84.6 square centimeters (cm^2). When required to ensure good germination and healthy plants, a fungicide treatment and/or other chemical or physical treatment was applied. The plants were grown for 7-31 days (d) in a greenhouse with an approximate 15 hour (h) photoperiod which was maintained at about 23-29° C. during the day and 22-28° C. during the night. Nutrients and water were added on a regular basis and supplemental lighting was provided with overhead metal halide 1000-Watt lamps as necessary. The plants were employed for testing when they reached the first or second true leaf stage.
(§2) Treatments consisted of esters of compounds 33 and 39 and F and G. Compound F is methyl 6-amino-2-(4-chloro-2-fluoro-3-methoxyphenyl)-5-methoxypyrimidine-4-carboxylate; and compound G is methyl 4-amino-3-chloro-6-(4-chloro-2-fluoro-3-methoxyphenyl)picolinate. A weighed amount, determined by the highest rate to be tested, of each test compound was placed in a 25 mL glass vial and was dissolved in 4 mL of a 97:3 v/v (volume/volume) mixture of acetone and dimethyl sulfoxide (DMSO) to obtain concentrated stock solutions. […] The concentrated stock solutions obtained were diluted with 20 mL of an aqueous mixture containing acetone, water, isopropyl alcohol, DMSO, Atplus 411F crop oil concentrate, and Triton® X-155 surfactant in a 48.5:39:10:1.5:1.0:0.02 v/v ratio to obtain spray solutions containing the highest application rates. Additional application rates were obtained by serial dilution of 12 mL of the high rate solution into a solution containing 2 mL of a 97:3 v/v (volume/volume) mixture of acetone and DMSO and 10 mL of an aqueous mixture containing acetone, water, isopropyl alcohol, DMSO, Atplus 411F crop oil concentrate, and Triton® X-155 surfactant in a 48.5:39:10:1.5:1.0:0.02 v/v ratio to obtain ½×, ¼×, ⅛× and 1/16× rates of the high rate. Compound requirements are based upon a 12 mL application volume at a rate of 187 liters per hectare (L/ha). Formulated compounds were applied to the plant material with an overhead Mandel track sprayer equipped with 8002E nozzles calibrated to deliver 187 L/ha over an application area of 0.503 square meters (m^2) at a spray height of 18 inches (43 cm) above the average plant canopy height. Control plants were sprayed in the same manner with the solvent blank.
(§3) The treated plants and control plants were placed in a greenhouse as described above and watered by sub-irrigation to prevent wash-off of the test compounds. After 14 d, the condition of the test plants as compared with that of the untreated plants was determined visually and scored on a scale of 0 to 100 percent where 0 corresponds to no injury and 100 corresponds to complete kill.

[1] = test system: Stellaria media (Chickweed, common); experiment: as above; settings: post-emergent spray, 70 g ai/ha, 14 DAA
Method: as §1, §2, §3

[2] = test system: Triticum aestivum (Wheat, spring); experiment: as above; settings: post-emergent spray, 70 g ai/ha, 14 DAA; crop (spring wheat)
Method: as §1, §2, §3

[3] = test system: Viola tricolor (Pansy, wild); experiment: as above; settings: post-emergent spray, 70 g ai/ha, 14 DAA
Method: as §1, §2, §3

Avena fatua (Oat, wild) = experiment: Postemergence herbicidal activity in cereal crops (Example 14); settings: wheat cropping systems, postemergence spray, 35 g ae/ha, 21 DAA
[4] = test system: Lolium multiflorum (Ryegrass, Italian); experiment: as above; settings: wheat cropping systems, postemergence spray, 17.5 g ae/ha, 21 DAA
[5] = test system: Setaria viridis (Foxtail, green); experiment: as above; settings: wheat cropping systems, postemergence spray, 17.5 g ae/ha, 21 DAA

COC(=O)c1nc(-c2ccc(Cl)c(OC)c2F)nc(N)c1OC [Compound F, methyl 6-amino-2-(4-chloro-2-fluoro-3-methoxyphenyl)-5-methoxypyrimidine-4-carboxylate, reference compound]
Visual Injury (%) ORYSA (Oryza sativa (Rice)): 75% | Visual Injury (%) STEME [1]: 90% | Visual Injury (%) TRZAS [2]: 70% | Visual Injury (%) VIOTR [3]: 80% | Visual Injury (%) AVEFA (Avena fatua (Oat, wild)): 20% | Visual Injury (%) LOLMU [4]: 60% | Visual Injury (%) SETVI [5]: 85%
